Measured values taken from patent US11229398B2, “Electrode assemblies for neurostimulation treatment” (Cardionomic, Inc., priority 2016, dated 2022).

Test system: normal, non-HF ovine model
Experiment: Change in contractility (max(dP/dt) from pressure measurements as surrogate) and beat-by-beat correlation of right and left ventricle contractility after an injection
Type: in vivo
Settings: for Contractility % Increase: after the injection, max(dP/dt) used as surrogate for contractility
Source text: The correlation was a heartbeat-by-heartbeat analysis. Pressure measurements, taken by a Millar catheter comprising a MEMS pressure sensor, in units of max(dP/dt) was used as a surrogate for contractility.
The first change, a dobutamine injection, provided a very high contractility increase greater than 500%. The average correlation between right ventricle contractility and left ventricle contractility was very good at 0.91, where 1.00 is a perfect correlation. Accordingly, if a subject is given a dobutamine injection, measuring changes to right ventricle contractility can provide accurate information about changes to left ventricle contractility. The first change was repeated three times.
The second change, calcium injection at 5 mL, provided a contractility increase of about 20%. […] The average correlation between right ventricle contractility and left ventricle contractility using a Millar (MEMS) sensor on a catheter was very good at 0.91. The average correlation between right ventricle contractility and left ventricle contractility using a fluid-filled lumen of a Swan-Ganz catheter in communication with an external pressure sensor was also very good at 0.87. Accordingly, under certain circumstances such as measurement of an animal (normal, non-HF ovine model) model, if a subject is given a calcium injection, measuring changes to right ventricle contractility with a MEMS sensor or a fluid filled lumen can provide accurate information about changes to left ventricle contractility.
The fourth change, neurostimulation as described herein, provided a contractility increase of about 28%. The correlation between right ventricle contractility and left ventricle contractility was very good at 0.90. Accordingly, if a subject is given neurostimulation, measuring changes to right ventricle contractility can provide accurate information about changes to left ventricle contractility. […] Thereafter, the left ventricle contractility tapered off logarithmically or exponentially, but the right ventricle contractility decreased very slowly. These differences help to show why the correlation between left ventricle contractility and right ventricle contractility are poorly correlated for calcium injections. The fourth change was not repeated.

[1] = first several beats after the injection

Substance: calcium [Calcium Injection (5 mL)]
- Contractility % Increase: ~20%
- Contractility % Increase (listed as calcium injection): about 20%
- left ventricle contractility [1]: increased dramatically
- right ventricle contractility [1]: only slightly increased
